Key:
[1] = biological target: pseudo-kinase domain (JH2, amino-acids 536-812) of human V617F mutant JAK2 (Homo sapiens (Human), UniProt O60674, F794H/V617F/W659A/W777A); experiment: JAK2 LanthaScreen JH2-V617F Binding Assay; conditions: JAK2 JH2-V617F 0.26 nM, 50 nM fluorescent tracer, 1 hour at 25° C.; read-out: JH2 BIND V617F IC50
Method: The assay was conducted in black 384-well polystyrene plates in a final reaction volume of 20 μL. […] Non-specific binding was accessed in the presence of 2 mM ATP. After incubation for 1 hour at 25° C., LanthaScreen signals were read on a PHERAstar FS plate reader (BMG LABTECH). Data was analyzed with IDBS XLfit and GraphPad Prism 5.0 software using a four parameter dose response curve to determine IC50 for each compound.

[2] = biological target: pseudo-kinase domain (JH2, amino-acids 536-812) of human Wild Type JAK2 (Homo sapiens (Human), UniProt O60674, F794H/W659A/W777A); experiment: JAK2 LanthaScreen JH2-WT Binding Assay; conditions: JAK2 JH2-WT 0.145 nM, 50 nM fluorescent tracer, 1 hour at 25° C.; read-out: JH2 BIND WT IC50
Chain of pseudo-kinase domain (JH2, amino-acids 536-812) of human Wild Type JAK2 (O60674 536-812 W659A/W777A/F794H): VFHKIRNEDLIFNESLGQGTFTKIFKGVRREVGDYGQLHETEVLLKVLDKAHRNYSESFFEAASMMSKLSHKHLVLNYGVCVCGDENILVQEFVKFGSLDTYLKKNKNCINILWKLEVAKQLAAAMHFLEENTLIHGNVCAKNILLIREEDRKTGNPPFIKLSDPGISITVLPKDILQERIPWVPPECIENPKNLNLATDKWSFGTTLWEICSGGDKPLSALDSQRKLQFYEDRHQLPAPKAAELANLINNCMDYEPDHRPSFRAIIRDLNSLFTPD
Method: Example B. JAK2 LanthaScreen JH2-WT Binding Assay
(§1) The assay was conducted in black 384-well polystyrene plates in a final reaction volume of 20 μL. JAK2 JH2-WT (0.145 nM) was incubated with compounds (100 nL serially diluted in DMSO) in the presence of 50 nM Fluorescent JAK2-JH2 Tracer (MedChem Express Catalog #HY-102055) and 0.25 nM Streptavidin-Tb cryptate (Cisbio Part #610SATLB) in assay buffer (50 mM Tris, pH=7.5, 10 mM MgCl2, 0.01% Brij-35, 0.1% BSA, 1 mM EGTA, 5% Glycerol and 5 mM DTT). Non-specific binding was accessed in the presence of 2 mM ATP. After incubation for 1 hour at 25° C., LanthaScreen signals were read on a PHERAstar FS plate reader (BMG LABTECH). Data was analyzed with IDBS XLfit and GraphPad Prism 5.0 software using a four parameter dose response curve to determine IC50 for each compound.

[3] = biological target: catalytic domain (JH1, amino acids 808-1132) of human JAK2 (Homo sapiens (Human), UniProt O60674); experiment: JAK2 HTRF Enzyme Activity Assay; assay type: biochemical; conditions: JAK2 0.015 nM, ATP (30 μM or 1 mM), 60 minutes at 25° C.
Chain of catalytic domain (JH1, amino acids 808-1132) of human JAK2 (O60674 808-1132): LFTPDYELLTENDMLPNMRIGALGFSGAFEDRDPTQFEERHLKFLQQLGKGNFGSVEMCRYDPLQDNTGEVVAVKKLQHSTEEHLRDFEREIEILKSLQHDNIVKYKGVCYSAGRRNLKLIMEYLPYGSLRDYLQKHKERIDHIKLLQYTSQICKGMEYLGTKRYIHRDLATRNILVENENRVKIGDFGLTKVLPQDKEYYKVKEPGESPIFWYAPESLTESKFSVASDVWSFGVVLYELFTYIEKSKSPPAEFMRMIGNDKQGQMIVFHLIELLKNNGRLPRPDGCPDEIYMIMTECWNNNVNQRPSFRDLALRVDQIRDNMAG
Method: Example D. JAK2 HTRF Enzyme Activity Assay
JAK2 enzyme activity assays utilize catalytic domain (JH1, amino acids 808-1132) of human JAK2 expressed as N-terminal His-tagged protein in a baculovirus expression system (BPS Bioscience, Catalog #40450). The assays was conducted in black 384-well polystyrene plates in a final reaction volume of 20 μL. JAK2 (0.015 nM) was incubated with compounds (100 nL serially diluted in DMSO) in the presence of ATP (30 μM or 1 mM) and 500 nM Biotin-labeled […] (SEQ ID NO.: 1) peptide (BioSource International, custom synthesis) in assay buffer (50 mM Tris, pH=7.5, 10 mM MgCl2, 0.01% Brij-35, 0.1% BSA, 1 mM EGTA, 5% Glycerol and 5 mM DTT) for 60 minutes at 25° C. The reactions were stopped by the addition of 10 μL of detection buffer (50 mM Tris, pH 7.8, 0.5 mg/mL BSA, 150 mM NaCl), supplemented with EDTA, LANCE Eu-W1024 anti-phosphotyrosine (PY20), (PerkinElmer, Catalog #AD0067) and Streptavidin SureLight APC (PerkinElmer Catalog #CR130-100), for a final concentration of 15 mM, 1.5 nM and 75 nM, respectively. HTRF signals were read after 30 minutes incubation at room temperature on a PHERAstar FS plate reader (BMG LABTECH). Data was analyzed with IDBS XLfit and GraphPad Prism 5.0 software using a four parameter dose response curve to determine IC50 for each compound.

[4] = biological target: catalytic domain (JH1, amino acids 826-1132) of human JAK2 (Homo sapiens (Human), UniProt O60674); experiment: JAK2 LanthaScreen JH1 Binding Assay; conditions: JAK2 JH1 1.5 nM, 50 nM fluorescent tracer, 2 hours at 25° C.; read-out: JH1 BIND IC50
Chain of catalytic domain (JH1, amino acids 826-1132) of human JAK2 (O60674 826-1132): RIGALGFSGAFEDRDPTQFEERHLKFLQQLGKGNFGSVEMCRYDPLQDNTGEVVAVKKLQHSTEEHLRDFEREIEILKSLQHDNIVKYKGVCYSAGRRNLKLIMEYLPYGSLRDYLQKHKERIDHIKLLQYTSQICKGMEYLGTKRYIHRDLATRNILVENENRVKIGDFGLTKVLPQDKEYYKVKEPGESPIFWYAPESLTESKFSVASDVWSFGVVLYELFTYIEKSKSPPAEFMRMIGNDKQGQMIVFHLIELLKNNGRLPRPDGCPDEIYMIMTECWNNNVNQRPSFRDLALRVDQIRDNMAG
Method: Example A. JAK2 LanthaScreen JH1 Binding Assay
as §1, with “JAK2 JH1 binding assay utilizes catalytic domain (JH1, amino acids 826-1132) of human JAK2 expressed as N-terminal FLAG-tagged, biotinylated protein in a baculovirus expression system (Carna Biosciences, Product #08-445-20N). The” for “The”, “JH1 (1.5” for “JH2-WT (0.145”, “JAK2-JH1” for “JAK2-JH2”, “Tracer” for “Tracer (MedChem Express Catalog #HY-102055)”, “0.5” for “0.25”, “2 hours” for “1 hour”

Chain of pseudo-kinase domain (JH2, amino-acids 536-812) of human V617F mutant JAK2 (O60674 536-812 V617F/W659A/W777A/F794H): as the sequence (O60674 536-812 W659A/W777A/F794H) above, with V82F counted along it

In the case of `COc1ccc(-c2c(C3CC3)[nH]c3ncc4c(c23)CN(c2ccc(C(=O)O)cc2)C(=O)N4C)cc1` [Example 26, 4-(8-Cyclopropyl-9-(4-methoxyphenyl)-4-methyl-3-oxo-1,3,4,7-tetrahydro-2H-pyrrolo[3′,2′:5,6]pyrido[3,4-d]pyrimidin-2-yl)benzoic acid], the IC50 [1] is reported as 100 to 500 nM, the IC50 [2] is reported as 100 to 500 nM and the IC50 [3] is reported as > 2500 nM. The IC50 [4] was > 2500 nM.

From patent publication US11661422B2, “Tricyclic urea compounds as JAK2 V617F inhibitors” (Incyte Corporation, priority 2020, dated 2023)
